Measured values as given in US20240383856A1 (Zedira GmbH, priority 2021, published 2024).

Legend:
[1] = molecular target: T1, recombinant human transglutaminase 2 (Homo sapiens, UniProt P21980); experiment: Transglutaminase assay (DCC-assay): incorporation of dansylcadaverine into dimethylcasein; type: biochemical; details: recombinant human TG2 10 nM; dansylcadaverine incorporation into dimethylcasein; read-out: IC50 TG2
T1 construct: purchased Zedira T022
T1 sequence (P21980 1-687): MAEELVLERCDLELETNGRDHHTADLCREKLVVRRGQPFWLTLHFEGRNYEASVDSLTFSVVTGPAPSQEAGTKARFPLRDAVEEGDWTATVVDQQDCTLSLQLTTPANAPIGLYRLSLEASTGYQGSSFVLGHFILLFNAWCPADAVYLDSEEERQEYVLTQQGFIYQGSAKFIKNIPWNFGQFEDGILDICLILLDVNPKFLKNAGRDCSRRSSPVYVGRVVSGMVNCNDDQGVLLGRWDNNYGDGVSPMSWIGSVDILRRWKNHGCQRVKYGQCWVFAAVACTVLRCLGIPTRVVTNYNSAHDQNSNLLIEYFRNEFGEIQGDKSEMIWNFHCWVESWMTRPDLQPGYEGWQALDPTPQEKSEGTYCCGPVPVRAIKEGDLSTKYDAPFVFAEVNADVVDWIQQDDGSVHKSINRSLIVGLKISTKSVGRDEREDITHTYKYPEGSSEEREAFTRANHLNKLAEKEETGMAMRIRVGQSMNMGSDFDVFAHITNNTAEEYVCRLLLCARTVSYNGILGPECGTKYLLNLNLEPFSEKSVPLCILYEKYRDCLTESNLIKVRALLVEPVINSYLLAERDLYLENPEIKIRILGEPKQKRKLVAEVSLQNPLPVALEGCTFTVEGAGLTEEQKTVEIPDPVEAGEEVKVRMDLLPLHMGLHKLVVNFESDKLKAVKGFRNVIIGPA
Description: To illustrate the advantage of branched alkyl moieties over aromatic moieties, we refer to reference compounds Ref. 2 (ZED1227, U.S. Pat. No. 9,434,763 B2) and Ref. 3 (A8, ZED1047). Inhibition data were determined using the classical fluorescent transamidation assay (dansylcadaverine incorporation into methylated casein, DCC-assay) as described [Buchold, C.; Hils, M.; Gerlach, U.; Weber, J.; Pelzer, C.; Heil, A.; Aeschlimann, D.; Pasternack, R. Features of ZED1227: The First-In-Class Tissue Transglutaminase Inhibitor Undergoing Clinical Evaluation for the Treatment of Celiac Disease. Cells 2022, 11, 1667. https://doi.org/10.3390/cells11101667]. Casein is one of the best known high molecular weight (24 kDa) protein substrates for transglutaminases. Please note, the IC50 value of Ref. 3 (A8) published in U.S. Pat. No. 9,434,763 B2 cannot be compared to the present data, relying on a fluorogenic isopeptidase assay.
To this extent, inhibition data were determined using the classical fluorescent transamidation assay (dansylcadaverine incorporation into methylated casein, DCC-assay) as described in Büchold et al. [Büchold, C.; Hils, M.; Gerlach, U.; Weber, J.; Pelzer, C.; Heil, A.; Aeschlimann, D.; Pasternack, R. Features of ZED1227: The First-In-Class Tissue Transglutaminase Inhibitor Undergoing Clinical Evaluation for the Treatment of Celiac Disease. Cells 2022, 11, 1667. https://doi.org/10.3390/cells11101667]. Casein is one of the best known high molecular weight (24 kDa) protein substrates for transglutaminases. Inhibition data of the inventive compounds was compared with inhibition of compounds disclosed in U.S. Pat. No. 9,434,763 B2, particularly, compound A8, which is denoted herein as Reference 3. It is noteworthy that the IC50 values of compounds A8 published in U.S. Pat. No. 9,434,763 B2 and E16 from U.S. Pat. No. 11,072,634 B2 cannot be compared to the present data, relying on a fluorogenic isopeptidase assay.
For the determination of potency of inhibitors against tissue transglutaminase, the incorporation of dansylcadaverine into dimethylcasein (Zedira product T036, Lorand et al., Anal Biochem, 1971, 44:221-31) was measured using recombinant human transglutaminase 2 (Zedira Product T022).
The tissue transglutaminase is diluted in buffer (50 mM Tris-HCl, 7.5 mM CaCl2), 150 mM NaCl, pH=7.4). The final concentration of TG2 in the assay is 10 nM.
A 10 mM inhibitor stock solution is prepared in DMSO, and from this a serial 1:2-fold dilution series is prepared also in DMSO. Each of the initial dilutions is subsequently diluted 1:50-fold with buffer (50 mM Tris-HCl, 7.5 mM CaCl2), 150 mM NaCl, pH=7.4) to yield the final working dilutions containing 2% (v/v) DMSO.
15 μl of inhibitor working dilution are added per well of a 96 well microtiter plate. As control, 15 μl of a 2% (v/v) DMSO solution prepared using the buffer mentioned above are added per well.
Immediately before starting the assay, 600 μl transglutaminase working solution are added to 11.4 ml assay buffer (50 mM Tris-HCl, 10 mM CaCl2), 10 mM glutathione, 2.5% glycerol, 16.7 µM dansylcadaverine, 4 uM N,N-dimethylcasein, 200 mM NaCl, pH=8.0). 285 μl of this reaction mix are added per well containing the inhibitor.
Increase in fluorescence is measured using λex=330 nm and λem=500 nm at 37° C. for 30 min. A slope of the increase in fluorescence between 20 and 30 min is calculated for determination of the IC50 value (inhibitor concentration at which 50% of the initial activity is blocked).
Analysis of enzymatic activity is performed by calculation of the slope of an increase in fluorescence intensity. IC50 values are calculated by plotting the enzymatic activity (as percentage from control containing 2% DMSO instead of inhibitor) against the inhibitor concentration. IC50 is defined as the inhibitor concentration blocking 50% of initial enzyme activity.

[2] = logD by shake flask method (octanol / PBS pH 7.4, HPLC); type: physicochemical; details: octanol / PBS pH 7.4, shake flask
Description: In order to classify the inventive compounds according to their lipophilicity, LogD values (distribution coefficient) were determined by means of the well-established shake flask method, measuring the partition of a compound between an octanol and phosphate-buffered saline (PBS, pH 7.4) by HPLC.
The LogD is pH dependent and is a “predictor” for in-vivo properties. LogD combines lipophilicity (intrinsic structural property of the molecule, logP) and ionizability (pKa). Compounds with a moderate lipophilicity (LogD values from 0 to 3) are usually advantaged for oral absorption, being in balance between solubility and permeability. However, sophisticated formulation of a compound might improve oral bioavailability for highly lipophilic compounds.

[3] = Caco-2 permeability assay (CacoReady kit); type: in vitro ADME; details: human, Caco-2, Caco-2 barrier, CacoReady kit; above 1×10^−6 cm/s classified as permeable
Description: Permeability coefficients (Papp values) were obtained from Caco-2 barrier studies predicting oral/intestinal bioavailability of the tested compounds. The assays were performed by using CacoReady™ ready-to-use kits from ReadyCell according to the manufacturers protocol.

SMILES | IC50 [1] | logD [2] | Papp [3]
CNC(=O)C(=O)CC[C@H](NC(=O)[C@@H]1CCCNC1)C(=O)Nc1cccn(CC(=O)NC2C3CC4CC(C3)CC2C4)c1=O (stereo partly drawn) [II-59, (S)-N1-(1-(2-(2-adamantylamino)-2-oxoethyl)-2-oxo-1,2-dihydropyridin-3-yl)-N6-methyl-5-oxo-2-((R)-piperidine-3-carboxamido)hexanediamide] | 40 to 400 nM | 1 to 3 | < 1 ×10⁻⁶ cm/s
CNC(=O)C(=O)CC[C@H](NC(=O)c1ccc(Cl)s1)C(=O)Nc1cccn(CC(=O)NC2C3CC4CC(C3)CC2C4)c1=O (stereo partly drawn) [II-24, (S)-2-(5-chlorothiophene-2-carboxamido)-N1-(1-(2-(2-adamantylamino)-2-oxoethyl)-2-oxo-1,2-dihydropyridin-3-yl)-N6-methyl-5-oxohexanediamide] | 40 to 400 nM | 1 to 3 | 1 to 10 ×10⁻⁶ cm/s
CNC(=O)C(=O)CC[C@H](NC(=O)c1ccnn1C)C(=O)Nc1cccn(CC(=O)N[C@@H]2C[C@H]3CC[C@@H]2C3)c1=O [II-153, (S)-N1-(1-(2-((1R,2R,4S)-bicyclo[2.2.1]heptan-2-ylamino)-2-oxoethyl)-2-oxo-1,2-dihydropyridin-3-yl)-N6-methyl-2-(1-methyl-1H-pyrazole-5-carboxamido)-5-oxohexanediamide] | 400 to 2500 nM | < 1 | < 1 ×10⁻⁶ cm/s
CNC(=O)C(=O)CC[C@H](NC(=O)c1ccnn1C)C(=O)Nc1cccn(CC(=O)N[C@@H]2C[C@@H]3CC[C@H]2C3)c1=O [II-158, (S)-N1-(1-(2-((1S,2R,4R)-bicyclo[2.2.1]heptan-2-ylamino)-2-oxoethyl)-2-oxo-1,2-dihydropyridin-3-yl)-N6-methyl-2-(1-methyl-1H-pyrazole-5-carboxamido)-5-oxohexanediamide] | 40 to 400 nM | < 1 | < 1 ×10⁻⁶ cm/s
CNC(=O)C(=O)CC[C@H](NC(=O)c1nc(Br)sc1C)C(=O)Nc1cccn(CC(=O)NC2C3CC4CC(C3)CC2C4)c1=O (stereo partly drawn) [II-34, (S)-2-(2-bromo-5-methylthiazole-4-carboxamido)-N1-(1-(2-(2-adamantylamino)-2-oxoethyl)-2-oxo-1,2-dihydropyridin-3-yl)-N6-methyl-5-oxohexanediamide] | 40 to 400 nM | 1 to 3 | > 10 ×10⁻⁶ cm/s

Other lines, results leading:

IC50 [1] | logD [2] | Papp [3] | SMILES
40 to 400 nM | 1 to 3 | 1 to 10 ×10⁻⁶ cm/s | CNC(=O)C(=O)CC[C@H](NC(=O)c1cc(Cl)sc1Cl)C(=O)Nc1cccn(CC(=O)N[C@@H]2C[C@H]3CC[C@@H]2C3)c1=O [II-128, (2S)-N1-(1-(2-((1R,2R,4S)-bicyclo[2.2.1]heptan-2-ylamino)-2-oxoethyl)-2-oxo-1,2-dihydropyridin-3-yl)-2-(2,5-dichlorothiophene-3-carboxamido)-N6-methyl-5-oxohexanediamide]
40 to 400 nM | < 1 | < 1 ×10⁻⁶ cm/s | CNC(=O)C(=O)CC[C@H](NC(=O)c1snnc1C1CC1)C(=O)Nc1cccn(CC(=O)NC23CC(C2)C3)c1=O [II-201, (S)-N1-(1-(2-(bicyclo[1.1.1]pentan-1-ylamino)-2-oxoethyl)-2-oxo-1,2-dihydropyridin-3-yl)-2-(4-cyclopropyl-1,2,3-thiadiazole-5-carboxamido)-N6-methyl-5-oxohexanediamide]
40 to 400 nM | 1 to 3 | 1 to 10 ×10⁻⁶ cm/s | CNC(=O)C(=O)CC[C@H](NC(=O)c1ccc(Cl)o1)C(=O)Nc1cccn(CC(=O)NC2C3CC4CC(C3)CC2C4)c1=O (stereo partly drawn) [II-26, (S)-2-(5-chlorofuran-2-carboxamido)-N1-(1-(2-(2-adamantylamino)-2-oxoethyl)-2-oxo-1,2-dihydropyridin-3-yl)-N6-methyl-5-oxohexanediamide]
400 to 2500 nM | < 1 | < 1 ×10⁻⁶ cm/s | CNC(=O)C(=O)CC[C@H](NC(=O)c1nc[nH]n1)C(=O)Nc1cccn(CC(=O)NC2C3CC4CC(C3)CC2C4)c1=O (stereo partly drawn) [II-134, (S)-N1-(1-(2-(2-adamantylamino)-2-oxoethyl)-2-oxo-1,2-dihydropyridin-3-yl)-N6-methyl-5-oxo-2-(1H-1,2,4-triazole-3-carboxamido)hexanediamide]
40 to 400 nM | 3 to 5 | 1 to 10 ×10⁻⁶ cm/s | CCCCCNC(=O)C(=O)CC[C@H](NC(=O)c1oc2ccccc2c1C)C(=O)Nc1cccn(CC(=O)NC2C3CC4CC(C3)CC2C4)c1=O (stereo partly drawn) [II-116, (S)-N1-(1-(2-(2-adamantylamino)-2-oxoethyl)-2-oxo-1,2-dihydropyridin-3-yl)-2-(3-methylbenzofuran-2-carboxamido)-5-oxo-N6-pentylhexanediamide]
40 to 400 nM | 1 to 3 | 1 to 10 ×10⁻⁶ cm/s | Cc1c(C(=O)N[C@@H](CCC(=O)C(N)=O)C(=O)Nc2cccn(CC(=O)N[C@H]3C[C@H]4CC[C@]3(C)C4(C)C)c2=O)oc2ccccc12 [II-151, (S)-2-(3-methylbenzofuran-2-carboxamido)-5-oxo-N1-(2-oxo-1-(2-oxo-2-((1R,2S,4R)-1,7,7-trimethylbicyclo[2.2.1]heptan-2-ylamino)ethyl)-1,2-dihydropyridin-3-yl)hexanediamide]
< 40 nM | 3 to 5 | 1 to 10 ×10⁻⁶ cm/s | CNC(=O)C(=O)CC[C@H](NC(=O)c1sc(Br)cc1C)C(=O)Nc1cccn(CC(=O)NC2C3CC4CC(C3)CC2C4)c1=O (stereo partly drawn) [II-21, (S)-2-(5-bromo-3-methylthiophene-2-carboxamido)-N1-(1-(2-(2-adamantylamino)-2-oxoethyl)-2-oxo-1,2-dihydropyridin-3-yl)-N6-methyl-5-oxohexanediamide]
